Results reported in ChEMBL document CHEMBL1127908, “A congener study of zileuton reveals interesting effects on glucuronidation rates” (Bioorg Med Chem Lett, 1994).

Key:
Homo sapiens [1] = organism: Homo sapiens; experiment: Concentration required for the inhibition of LTB4 production in human whole blood; assay type: functional, organism-based
Homo sapiens [2] = organism: Homo sapiens; experiment: Tested for its rate of glucuronidation in 0.5-2.5 mg/mL of human microsomal protein; assay type: functional
Homo sapiens [3] = organism: Homo sapiens; experiment: Tested for its rate of glucuronidation in 0.5-2.5 mg/mL of human microsomal protein; Not detected; assay type: functional
Homo sapiens [4] = organism: Homo sapiens; experiment: Tested for its rate of glucuronidation in 0.5-2.5 mg/mL of human microsomal protein; not detected; assay type: functional

SMILES	IC50 (Homo sapiens [1]) [nM]	Glucuronidation rate (nM min-1 mg-1) (Homo sapiens [2])	other results
CC(c1cc2ccncc2s1)N(O)C(N)=O (stereo in doubt; (-)-3a) [listing 1 of 2 here]			IC50 (Homo sapiens [1]; Homo sapiens, Blood): 2000 nM
CC(c1cc2ccncc2s1)N(O)C(N)=O (single isomer, unassigned; (+)) [listing 1 of 2 here]		0.053	
CC(c1cc2ccccc2s1)N(O)C(N)=O (stereo in doubt; (+)-1b)		0.025	
CC(c1cc2cccnc2o1)N(O)C(N)=O (single isomer, unassigned; (-)) [listing 1 of 2 here]			Glucuronidation rate (Homo sapiens [3]): Not detected
CC(c1cc2ncccc2s1)N(O)C(N)=O (stereo in doubt; (-)-4a) [listing 1 of 2 here]		0.037	
CC(c1cc2ncccc2s1)N(O)C(N)=O (single isomer, unassigned; (+)) [listing 1 of 2 here]		0.006	
CC(c1cc2cccnc2s1)N(O)C(N)=O (stereo in doubt; (+)-2b) [listing 2 of 2 here]		0.012	
CC(c1cc2ccncc2s1)N(O)C(N)=O (stereo in doubt; (-)-3a) [listing 2 of 2 here]		0.241	
CC(c1cc2cccnc2s1)N(O)C(N)=O (single isomer, unassigned; (-)) [listing 2 of 2 here]		0.058	
CC(c1cc2ccccc2s1)N(O)C(N)=O (single isomer, unassigned; (-))		0.155	
CC(c1cc2cccnc2o1)N(O)C(N)=O (stereo in doubt; (+)-5b) [listing 2 of 2 here]			Glucuronidation rate (Homo sapiens [4]): Not detected

Second part, led by results:

IC50 (Homo sapiens [1]) [nM]	SMILES	Glucuronidation rate (nM min-1 mg-1) (Homo sapiens [2])	other results
950	CC(c1cc2cccnc2s1)N(O)C(N)=O (stereo in doubt; (+)-2b) [listing 1 of 2 here]		
2780	CC(c1cc2cccnc2o1)N(O)C(N)=O (stereo in doubt; (+)-5b) [listing 1 of 2 here]		
3700	CC(c1cc2cccnc2s1)N(O)C(N)=O (single isomer, unassigned; (-)) [listing 1 of 2 here]		
1880	CC(c1cc2ccccc2s1)N(O)C(N)=O (single isomer, unassigned; (-)) [ZILEUTON]		
11300	CC(c1cc2cccnc2o1)N(O)C(N)=O (single isomer, unassigned; (-)) [listing 2 of 2 here]		
640	CC(c1cc2ccccc2s1)N(O)C(N)=O (stereo in doubt; (+)-1b) [ZILEUTON]		
6620	CC(c1cc2ncccc2s1)N(O)C(N)=O (stereo in doubt; (-)-4a) [listing 2 of 2 here]		
1500	CC(c1cc2ccncc2s1)N(O)C(N)=O (single isomer, unassigned; (+)) [listing 2 of 2 here]		
3120	CC(c1cc2ncccc2s1)N(O)C(N)=O (single isomer, unassigned; (+)) [listing 2 of 2 here]		
